Legend:
Assay in all cases: cells
Assay type in all cases: functional, cell-based
Conditions in all cases: Homo sapiens
[1] = system: MCF7
Description: In vitro cytotoxic effect on MCF-7 cancer cell line

[2] = system: K562
Description: In vitro cytotoxic effect on K562 cancer cell line

[3] = system: G-361
Description: In vitro cytotoxic effect on G361 cancer cell line

[4] = system: CCRF-CEM
Description: In vitro cytotoxic effect on CEM cancer cell line

[5] = system: HOS
Description: In vitro cytotoxic effect on HOS cancer cell line

Row | SMILES | IC50 [1] | IC50 [2] | IC50 [3] | IC50 [4] | IC50 [5]
1 | CC(C)n1cnc2c(NCc3ccc(O)cc3)nc(NCCCO)nc21 | 12.7 µM | 57 µM | 23 µM | 18.2 µM | –
2 | CC(C)n1cnc2c(NCc3cccc(O)c3)nc(NCCCO)nc21 | 14.7 µM | 56 µM | 26 µM | 17.6 µM | 26 µM
3 | CCC(CO)Nc1nc(NCc2cccc(O)c2)c2ncn(C(C)C)c2n1 (stereo unspecified) | 13.7 µM | 26 µM | 19.4 µM | 9.9 µM | 11 µM
4 | CC(C)C(CO)Nc1nc(NCc2ccc(O)cc2)c2ncn(C(C)C)c2n1 (stereo unspecified) | 9.3 µM | 14.8 µM | 11.1 µM | 5.3 µM | 12 µM
5 | CC(C)n1cnc2c(NCc3ccccc3O)nc(NCCCO)nc21 | 12.4 µM | 24 µM | 13.3 µM | 10.7 µM | 17.2 µM
6 | CCC(CO)Nc1nc(NCc2ccc(O)cc2)c2ncn(C(C)C)c2n1 (stereo unspecified) | 7.8 µM | 24 µM | 11.1 µM | 11 µM | 13 µM
7 | CC(C)C(CO)Nc1nc(NCc2ccccc2O)c2ncn(C(C)C)c2n1 (stereo unspecified) | 5.7 µM | 10.9 µM | 7.8 µM | 4.4 µM | 8.3 µM
8 | CC(C)C(CO)Nc1nc(NCc2cccc(O)c2)c2ncn(C(C)C)c2n1 (stereo unspecified) | 14.8 µM | 16.1 µM | – | 6.7 µM | –
9 | CC(C)n1cnc2c(NCc3ccccc3)nc(NCCCO)nc21 [BOHEMINE] | 28 µM | 113 µM | 45 µM | 27 µM | 58 µM
10 | CC[C@H](CO)Nc1nc(NCc2ccccc2O)c2ncn(C(C)C)c2n1 [OLOMOUCINE II] | 5.3 µM | 11.1 µM | 6.3 µM | 3 µM | 6.3 µM
11 | Cn1cnc2c(NCc3ccccc3)nc(NCCO)nc21 [OLOMOUCINE] | – | > 167 µM | 160 µM | 62 µM | 149 µM
12 | CC(C)[C@H](CO)Nc1nc(Nc2cccc(Cl)c2)c2ncn(C(C)C)c2n1 [PURVALANOLA] | 10.7 µM | 9 µM | 24 µM | 7.4 µM | 22 µM

Source: ChEMBL document CHEMBL1134966 (Bioorg Med Chem Lett, 2002)
